As usually defined, the inhibition is how much of the control response was suppressed.

The nature of series [1]: Physical and chemical properties: solubility in solvents. In kind it is physicochemical. The procedure:
The structure of the obtained white powder compound was analyzed by NMR. The compound is expressed by Formula 1 (molecular formula=C25H32O4; molecular weight=396.52).

In another series the test system is mice. Description: Toxicity test in mice. In kind it is in vivo. The method, then: The compound expressed by the formula 1 was dissolved in dimethyl sulfoxide (DMSO). The solution was diluted with water and administered to mice (10 heads per group) by 100 μg/kg.
For the next series, the target named is T1, farnesyl transferase (Rattus norvegicus, UniProt Q02293+Q04631).
T1 construct: 100-150 g of brain was separated from a male rat (Sprague Dowley); from tissue; host or cells: rat (Sprague Dawley) brain
As to the kind of experiment: Farnesyl transferase inhibition, scintillation proximity assay with 3H-FPP and biotin-lamin B peptide. In kind it is biochemical. The method, then:
100-150 g of brain was separated from a male rat (Sprague Dowley). It was washed with a physiological salt solution and homogenized. Then, farnesyl transferase enzymogen was separated by centrifuging and partially purifying the homogenate with a Q Sepharose Fast Flow Column. The enzyme activity was determined by scintillation proximity assay (SPA), using the ^3H-farnesyl pyrophosphate (FPP) substrate.
To be specific, the method of Michael S. Brown, etc. (Yuval Reiss, Joseph L. Goldstein, Miguel C. Seabra, Patrick J. Casey and Michael S. Brown, 1990, Inhibition of Purified p21ras Farnesyl Protein Transferase by Cys-AAX Tetrapeptides, 62, 81-88) was modified a little. 10 μl of the sample liquid, 10 μl of analysis buffer solution (50 mM Tris-HCL pH7.5, 25 mM MgCl2, 2 mM KCl, 5 mM DTT, 5 mM Na2HPO4, 0.01% Triton X-100), 20 μl of diluted ^3H-FPP, 20 μl biotin-lamin B peptide and 40 μl of farnesyl transferase were mixed well and rendered to react for 30 min at room temperature. Then, 150 μl of SPA bead/stop reagent solution was added. The farnesylation level of biotin-lamin B peptide was measured by using a scintillation counter in CPM (counts per minute) unit. The farnesyl transferase activity inhibition was calculated via Equation 1. [formula] […]
For orientation: In a scintillation proximity assay essentially only radioactivity close to the scintillant gives light.

A further series relates to HL-60 cell. Description: Leukemia cell growth inhibition, HL-60. The series is classed as cell-based. The note with it: Homo sapiens, read-out: GI50, the concentration when the cancer cell growth is inhibited by 50%. The method, then:
(§1) After removing all medium from the 96-well plate, […] of the new compound was added to each well. After 48 hr of culture, WST-1 was added to each well. Then the culture plate was placed for 3 hr at 37° C. in the presence of 5% CO2. When the reaction was completed, light absorption at 450-690 nm was measured by using an ELISA reader to identify the cancer cell growth inhibition effect.

Series [2] deals with NIH3T3 (mouse fibroblast). Description: Cell growth inhibition (WST-1), NIH3T3. In kind it is cell-based. To be noted: 48 hr culture, read-out: GI50, the concentration when the cancer cell growth is inhibited by 50%. The procedure:
(§2) NIH3T3 (mouse fibroblast), K-ras (K-ras gene transformed NIH3T3 cell), H-ras (H-ras gene transformed NIH3T3 cell) and SW620 (human colon cancer cell) solid tumor cell lines were cultured in 10% of bovine serum albumin or RPMI 1640 medium (containing L-glutamine and not containing sodium bicarbonate; Gibco Cat. No 31800-022) under 37° C. and 5% CO2 condition. The subculture was carried out 2 times a week. The cells were separated from the wall using 0.5% of trypsin and 5.3 mM EDTA (ethylenediamine tetra acetic acid) dissolved in phosphate buffer solution (PBS). In each well of 96-well plate (Falcon), 3×10^3-6×10^3 cells were added and cultured at 37° C. in the presence of 5% CO2 of medium for 24 hr. The new compound was dissolved in dimethyl sulfoxide (DMSO) and diluted to the concentration required for the test. The final concentration of DMSO was set to be lower than 0.5%.
as §1
On the technique in general: Formazan colour is commonly taken as a measure of viable cells.

The test system of series [3] is SW620 (human colon cancer cell). Description: Cell growth inhibition (WST-1), SW620. In kind it is cell-based. To be noted: SW-620, 48 hr culture, read-out: GI50, the concentration when the cancer cell growth is inhibited by 50%. The method, then: as §2, §1
Another series concerns Molt-4 cell. As to the kind of experiment: Leukemia cell growth inhibition, Molt-4. The series is classed as cell-based. The note with it: Homo sapiens, read-out: GI50, the concentration when the cancer cell growth is inhibited by 50%. The method, then:
as §1

The test system of series [4] is H-ras (H-ras gene transformed NIH3T3 cell). Description: Cell growth inhibition (WST-1), H-ras. The series is classed as cell-based. To be noted: Mus musculus, 48 hr culture, read-out: GI50, the concentration when the cancer cell growth is inhibited by 50%. The method, then: as §2, §1
Series [5] concerns K-ras (K-ras gene transformed NIH3T3 cell). Description: Cell growth inhibition (WST-1), K-ras. In kind it is cell-based. To be noted: Mus musculus, 48 hr culture, read-out: GI50, the concentration when the cancer cell growth is inhibited by 50%. The method, then: as §2, §1

As for `C=C1C(=O)O[C@@H]2[C@@H]1CC[C@](C)(O)C13C=CC(C)([C@@H]21)[C@]1(C3)C(=O)C[C@@]2(C(C)C)C[C@H]21` (some centres unmarked) [Formula 1, Artemisolide], the “Insoluble in” value in [1] is “Hexane”. In series [1], the “Soluble in” value is given as “MeOH; acetone; EtOAc”. Further, the “acute toxicity in the animal test” value with mice is “no acute toxicity”. At farnesyl transferase (at 100 μg/ml), this compound yielded an inhibition at 100 µg/mL of around 50%. In addition, the IC50 at farnesyl transferase (read-out: IC50 (concentration for inhibiting activity by 50%) on farnesyl transferase (converted)) is around 252 µM. Further, the GI50 was around 1.5 µM with HL-60 cell; around 5.5 µg/mL in series [2]; 2.5 µg/mL in series [3]; 3.2 µM in the series on Molt-4 cell; 1.2 µg/mL in [4]; around 0.8 µg/mL in series [5].
